The experiment relates to HSC-T6 cells. The note with it: 96-well plate, excitation 560 nm, emission 590 nm, FIGS. 8-9, comparison with non-retinoid composition.

Description: HSC-T6 cells, which express a vitamin A binding protein receptor, were seeded one day prior to experiment in a 96-well plate (100 μL culture medium per well). […] The solutions were diluted with culture medium and incubated for 15 minutes at room temperature. 15 μL was added to the cells. After incubating the cells in solution, the culture medium was removed. Cells were washed once with DPBS and fresh culture medium was added (100 μL culture medium per well). Absorbance (excitation and emission wavelengths were 560 nm and 590 nm, respectively) was read by a BioTek FLx800 96-well plate fluorescence reader and recorded.

On to Texas Red-Dextran-Retinoid, for which the “cell uptake (absorbance; greater absorbance indicates greater cell uptake)” value was “greater cellular uptake than the oleic acid composition”.

These data come from patent publication US20100028416A1, “DRUG CARRIERS” (Nitto Denko Corporation, priority 2008, published 2010).
